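Results reflect a 48-hour exposure of cells in 96-well plates to compound at five concentrations. Definition used: TGI = concentration required for complete inhibition of growth.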
What was measured:
Assay in all cases: inhibition of tumour cell growth, NCI panel, 48 h
[1] = test system: SW-620 colon
[2] = test system: UACC-257 melanoma
[3] = test system: DU-145 prostate
[4] = test system: SNB-19 CNS
[5] = test system: SR leukemia
[6] = test system: NCI-H460 lung
[7] = test system: NCI-H522 lung
[8] = test system: OVCAR-8 ovarian
[9] = test system: SK-OV-3 ovarian
[10] = test system: MDA-MB-231 breast
[11] = test system: NCI-H23 lung
[12] = test system: HCC-2998 colon
[13] = test system: U251 CNS
[14] = test system: RXF 393 renal
[15] = test system: SK-MEL-2 melanoma
[16] = test system: NCI/ADR-RES ovarian

| Compound | TGI [1] | TGI [2] | TGI [3] | TGI [4] | TGI [5] | TGI [6] | TGI [7] | TGI [8] | TGI [9] | TGI [10] | TGI [11] | TGI [12] | TGI [13] | TGI [14] | TGI [15] | TGI [16] |
| --- | --- | --- | --- | --- | --- | --- | --- | --- | --- | --- | --- | --- | --- | --- | --- | --- |
| CCCCCCCC(CC(=O)NC(CO)C(=O)NC(CO)CC(C)C)OC(=O)CC(CCCCCCC)OC(=O)CC(CCCCCCC)OC1OC(C)C(O)C(OC2OC(C)C(O)C(OC(C)=O)C2O)C1O (configuration not stated) | 28.8 µM | 18.5 µM | 23.4 µM | 20.4 µM | 13.2 µM | 26.1 µM | 28.4 µM | 28.3 µM | 30.8 µM | 23.4 µM | 27.9 µM | 23.2 µM | 17.2 µM | 20.9 µM |  |  |
| N=c1c2ccccc2nc2oc3cc([N+](=O)[O-])ccc3n12 | > 100 µM | > 100 µM |  | > 100 µM | > 100 µM | > 100 µM | > 100 µM | 51.2 µM | 37.1 µM | 60.5 µM | 49.5 µM | > 100 µM | 29.6 µM | 32.5 µM | > 100 µM | 74 µM |
| O=[N+]([O-])/C(C(Cl)=C(Cl)Cl)=C1\Nc2ccc([N+](=O)[O-])cc2N1 |  | > 100 µM | > 100 µM | > 100 µM |  | > 100 µM | 63 µM |  | > 100 µM | > 100 µM | > 100 µM |  | > 100 µM |  | > 100 µM | > 100 µM |
| CC[C@@]1(O)C(=O)OCc2c1cc1n(c2=O)Cc2c-1nc1ccccc1c2/C=N\NC(=O)C[n+]1ccccc1 | > 100 µM | > 84.5 µM | 14.3 µM | 19.1 µM |  | 9.75 µM | > 43.5 µM | > 68.7 µM | > 100 µM | > 100 µM | 7.71 µM | > 100 µM | 32 µM | 2.79 µM | > 89.6 µM | > 100 µM |
| NCc1ccc(-c2ccc(CN)s2)s1 | > 100 µM | > 100 µM | > 100 µM | > 100 µM |  |  | > 100 µM | > 100 µM | > 100 µM | > 100 µM | > 100 µM | > 100 µM | > 100 µM | > 100 µM | > 100 µM | 83.6 µM |
| O=C(/C=C/c1cccc([N+](=O)[O-])c1)N1CCN(CCOC(c2ccccc2)c2ccccc2)CC1 | > 100 µM | 89.2 µM | > 100 µM | > 100 µM | 32.9 µM | > 100 µM | > 100 µM | > 100 µM | > 100 µM |  | > 100 µM | 55.2 µM |  | > 100 µM |  | > 100 µM |

— PubChem BioAssay (NCI)
